These results are taken from patent US20260241062A1, “WATER-DISPERSED PRESSURE-SENSITIVE ADHESIVE COMPOSITION AND PRESSURE-SENSITIVE ADHESIVE SHEET” (NITTO DENKO CORPORATION, priority 2023, published 2026).

Series [1] in a line: acid dissociation constant (pKa) of the monomers.
For series [2] the following is noted: at 20° C.; cited from earlier work.
Where [3] appears, read: acid dissociation constant of each component.

Where two headings read alike, the source gives them in different places. Bounds are passed on as bounds.

On to `C=CC(=O)N(CC)CC` [DEAA, diethylacrylamide], for which, in series [1] (setting [3]), the pKa (commonly the negative logarithm of the acid dissociation constant) is given as −0.77. In addition, the Water solubility result in series [2] is “Soluble”. With “2-acryloyloxyethyl succinic acid [HOA-MS]”, the pKa in series [1] (setting [3]) amounted to 4.35. Regarding `C=C(C)C(=O)OC` [MMA, methyl methacrylate], in series [2], the Water solubility is 1.6 g/100 mL.

As to `C=CC(=O)NC(C)C` [NIPAM, N-isopropylacrylamide], in series [1], the pKa is 14.8. The Water solubility in series [2] is listed as below 0.1 g/100 mL. In series [1], `C=CN1CCCC1=O` [NVP, N-vinylpyrrolidone] gave a pKa of -0.34. Further, the Water solubility result in series [2] is recorded as “Miscible”.

Regarding `C=CC(=O)NCCCN(C)C` [DMAPAA, dimethylaminopropylacrylamide], the pKa in series [1] (setting [3]) was 14.88. Further, in series [2], the Water solubility entry was “Soluble”. `C=CC(=O)N1CCOCC1` [ACMO, N-acryloylmorpholine]: the pKa in series [1] was -1.08. In the case of `C=C(C)C(=O)O` [MAA, methacrylic acid], in series [1], the pKa came to 4.66. Also, the Water solubility in series [2] was 9.7 g/100 mL.
